{"source": "patent EP4755891A1", "about": "“ARF1 INHIBITOR AND USE THEREOF” (AOBIO PHARMACEUTICAL CO., LTD., priority 2023, dated 2025)", "key": {"B16-F10 melanoma": {"test_system": "B16-F10 melanoma", "assay": "Inhibition of B16-F10 melanoma in C57B/6 mice", "type": "in vivo", "settings": "5 mg/kg, oral, two consecutive weeks", "protocol": "In this example, the inhibitory effect of Compound 9 synthesized in the above preparation example on melanoma tumor growth was tested.\nMurine B16-F10 cells were inoculated at a dose of 5×10^5 cells per mouse into the left abdomen of 6-week-old male mice. Approximately 7 days later, the mice were treated orally with ddH2O or the novel Arf1 inhibitor for two consecutive weeks. The mice were randomly divided into three groups: the control group, the Compound 9 treatment group, and the DU102 treatment group. The mice were administered ddH2O, 5 mg/kg of Compound 9 (dissolved in ddH2O), or 5 mg/kg of DU102 (dissolved in a solvent composed of 5% DMSO + 95% corn oil, as a positive control) for two consecutive weeks. Tumor diameters were measured every 2-3 days using a digital caliper (ULINE, Cat^# H-7352), and the tumor volume was calculated using the formula ½ × longitudinal diameter (length) × maximum transverse diameter (width). When the maximum tumor volume reached 2000 mm^3, the mice were euthanized."}, "Mouse neuroblastoma N2A": {"test_system": "Mouse neuroblastoma N2A", "assay": "Test for Golgi morphology abnormalities (GM130 immunofluorescence)", "type": "cell-based", "settings": "N2A cells; FIG. 4", "protocol": "GCA, a known Arf1 inhibitor, was used as a positive control.\nMouse neuroblastoma N2A (N2a, ATCC®CCL-131™) was cultured, treated, and subjected to immunofluorescence staining as previously reported (Wang et al., 2021)."}, "[1]": {"assay": "Pharmacokinetic study in SD rats", "type": "in vivo", "protocol": "In this experiment, six male SD rats were divided into two groups based on similar body weight. These rats were administered Compound 9 via single intravenous injection and oral gavage, respectively. The intravenous injection dose was 2 mg/kg, while the oral gavage dose was 10 mg/kg. The vehicle for both intravenous and oral administration was a clear solution of 5% DMSO + 5% PEG400 + 90% water. The concentration for intravenous injection was 0.4 mg/mL, and for oral gavage was 1 mg/mL. K2-EDTA was used as the anticoagulant. The blood sampling time points were all at: 0.083, 0.25, 0.5, 1, 3, 6, 12, and 24 hours.\nBlood samples of 0.02 mL were collected from the saphenous vein of all experimental animals, and the actual blood collection time was recorded. In this experiment, the deviation of the blood sampling time from the theoretical sampling time complied with the regulations (points within 1 hour after administration were within ±1 minute, and all others were within 5% of the theoretical time). After blood sample collection, the blood samples were immediately transferred to labeled centrifuge tubes containing K2-EDTA (0.5 M). The samples were then centrifuged (3000 g, 4°C, 15 minutes), and the plasma was collected. The plasma was transferred to a pre-cooled centrifuge tube, flash-frozen in dry ice, and stored in an ultra-low temperature freezer at -60°C or less until LC-MS/MS analysis was performed."}, "CT26 colon cancer": {"test_system": "CT26 colon cancer", "assay": "Inhibition of CT26 colon cancer in BALB/c mice (Example 47, 5 mg/kg)", "type": "in vivo", "settings": "gavaged daily, two consecutive weeks", "protocol": "In this example, the inhibitory effects of Compounds 9, 11-3, 25, 26, 27, and DU102 on colon cancer growth were tested.\nMurine CT26 cells were inoculated into the left abdomen of 6-week-old male mice at a dose of 5×10^5 cells per mouse. Approximately 7 days later, the mice were randomly divided into two groups: the control group or the compound treatment group. They were gavaged daily with either the vehicle control (ddH2O or 5% DMSO in corn oil) or 5 mg/kg of Compounds 9, 11-3, 25, 26, or 27 (dissolved in the corresponding vehicle) for two consecutive weeks. Tumor diameters were measured every 2-3 days using a digital caliper (ULINE, Cat^# H-7352), and the tumor volume was calculated using the formula ½ × longitudinal diameter (length) × maximum transverse diameter (width). When the maximum tumor volume reached 2000 mm^3, the mice were euthanized."}, "[2]": {"test_system": "Drosophila orthotopic tumors", "assay": "Inhibition of orthotopic tumor growth in Drosophila", "type": "in vivo", "settings": "5 µM in food, 4 days; Ras^V12-PMML clones; FIG. 7", "protocol": "In this example, the inhibitory effects of Compounds 3 and 9 synthesized in the above preparation examples on the growth of Drosophila orthotopic tumors were tested. As previously described, renal stem cell tumor clusters were induced by expressing Ras in Drosophila renal stem cell (Ras^V12-PMML) clones (Singh et al., 2016). The Drosophila carrying Ras^V12-PMML clones were cultured with normal food at room temperature for 4 days to allow tumor growth. They were then switched to food containing the indicated drugs for an additional 4 days, followed by feeding the Drosophila carrying Ras^V12-PMML with normal food containing DMSO or 5 µM Compound 3 or Compound 9. In the indicated groups, the number of esg>GFP + tumor cells per 5×10^3 µm^2 area was quantified to characterize tumor size."}, "[3]": {"assay": "Plasma stability, rat plasma", "type": "in vitro ADME", "settings": "37°C; for remaining amount in plasma: rat plasma, 2.0 µM", "protocol": "(§1) At 37°C, 2.0 µM of the compound was co-incubated with plasma samples from five species (mouse, rat, dog, cynomolgus monkey, human) for 120 minutes. The concentration of the compound in the samples was detected by the liquid chromatography-tandem mass spectrometry (LC-MS/MS) method, and the half-life (T1/2) was calculated."}, "Arf1": {"molecular_target": "T1, Arf1 (Homo sapiens, UniProt P84077)", "T1 construct": "endogenous in cells; host or cells: Huh-7 liver cancer cells (lysate)", "T1 sequence (P84077 whole entry)": "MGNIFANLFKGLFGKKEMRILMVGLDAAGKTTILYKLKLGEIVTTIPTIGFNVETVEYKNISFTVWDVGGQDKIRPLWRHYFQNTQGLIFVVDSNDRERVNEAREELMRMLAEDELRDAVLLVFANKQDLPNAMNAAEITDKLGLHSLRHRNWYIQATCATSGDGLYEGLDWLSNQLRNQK", "assay": "Inhibition test of Arf1 activation (Active Arf1 pull-down and detection kit, Western blot)", "type": "cell-based", "settings": "lysate of liver cancer Huh-7 cells; GTP-bound Arf1; FIG. 3", "protocol": "In this example, the inhibitory ability of Compounds 3 and 9 synthesized in the above preparation examples on Arf1 activation was tested. The Pierce Active Arf1 Pull-Down and Detection Kit (Thermo Scientific, Cat#16121) was used with the lysate of liver cancer Huh-7 cells to detect the activated Arf1. It is a complete kit that selectively enriches and detects GTP-bound Arf1 GTPase through specific protein interactions with the GGA3 protein-binding domain."}, "[4]": {"assay": "Plasma stability, dog plasma", "type": "in vitro ADME", "settings": "2.0 µM, 37°C", "protocol": "as §1"}}, "note": "“Also recorded” adds a separate entry of the source. Read-outs that look alike come from different tables or passages of the source.", "data": [{"smiles": "Cc1csc2ncnc(Nc3ccc4c(c3)ncn4C)c12", "note": "[Compound 9, 5-Methyl-N-(1-methyl-1H-benzo[d]imidazol-5-yl)thieno[2,3-d]pyrimidin-4-amine]", "values": [{"measurement": "B16-F10 melanoma growth", "setting": "B16-F10 melanoma; FIG. 8", "value": "effectively inhibit B16-F10 melanoma growth"}, {"measurement": "size of murine melanoma tumors", "setting": "B16-F10 melanoma; FIG. 8A", "value": "significantly inhibited the size of murine melanoma tumors"}, {"measurement": "weight of murine melanoma tumors", "setting": "B16-F10 melanoma; FIG. 8B", "value": "significantly reduced the weight of murine melanoma tumors"}, {"measurement": "Golgi morphology (Golgi apparatus defects, distribution of Golgi marker GM130)", "setting": "Mouse neuroblastoma N2A", "value": "induce Golgi apparatus defects; also recorded: effectively induce morphological changes in the Golgi apparatus"}, {"measurement": "absorption in rats", "setting": "[1]; conclusion in words", "value": "rapidly absorbed"}, {"measurement": "apparent volume of distribution", "setting": "[1]; conclusion in words", "value": "moderate apparent volume of distribution"}, {"measurement": "oral bioavailability", "setting": "[1]; conclusion in words", "value": "high oral bioavailability"}, {"measurement": "Vd", "setting": "[1]; rat, plasma, Intravenous Injection, 2 mg/kg, male SD rats, read-out: Apparent Volume of Distribution Vdss", "value": 0.647, "unit": "L/kg"}, {"measurement": "clearance", "setting": "[1]; rat, plasma, Intravenous Injection, 2 mg/kg, male SD rats, read-out: Clearance Cl", "value": 39.8, "unit": "mL/min/kg"}, {"measurement": "half-life", "setting": "[1]; rat, plasma, Intravenous Injection, 2 mg/kg, male SD rats, read-out: Half-Life T1/2 (converted)", "value": 11, "unit": "min"}, {"measurement": "bioavailability", "setting": "[1]; rat, plasma, Oral Gavage, 10 mg/kg vs intravenous 2 mg/kg, male SD rats, read-out: Bioavailability F", "value": 164, "unit": "%"}, {"measurement": "AUC(0-t)", "setting": "[1]; rat, plasma, Oral Gavage, 10 mg/kg, male SD rats, read-out: Exposure AUC0-last", "value": 6840, "unit": "ng·h/mL"}, {"measurement": "half-life", "setting": "[1]; rat, plasma, Oral Gavage, 10 mg/kg, male SD rats, read-out: Half-life T1/2 (converted)", "value": 34.2, "unit": "min"}, {"measurement": "Cmax", "setting": "[1]; rat, plasma, Oral Gavage, 10 mg/kg, male SD rats, read-out: Maximum Concentration Cmax", "value": 4770, "unit": "ng/mL"}, {"measurement": "size of murine colon cancer", "setting": "CT26 colon cancer; FIG. 9A", "value": "size of murine colon cancer inhibited"}, {"measurement": "weight of murine colon cancer", "setting": "CT26 colon cancer; FIG. 9B", "value": "weight of murine colon cancer reduced significantly"}, {"measurement": "inhibition of CT26 colon cancer", "setting": "CT26 colon cancer; FIG. 9 and FIG. 10", "value": "effectively inhibit CT26 colon cancer"}, {"measurement": "orthotopic tumor growth in Drosophila", "setting": "[2]", "value": "effectively inhibit orthotopic tumor growth"}, {"measurement": "half-life at 2 µM", "setting": "[3]; plasma, printed in the Rat row", "value": "> 289", "unit": "min"}, {"measurement": "remaining amount in plasma", "setting": "[3]; time point 0 min", "value": 100.0, "unit": "%"}, {"measurement": "remaining amount in plasma", "setting": "[3]; time point 10 min", "value": 102.1, "unit": "%"}, {"measurement": "remaining amount in plasma", "setting": "[3]; time point 30 min", "value": 93.5, "unit": "%"}, {"measurement": "remaining amount in plasma", "setting": "[3]; time point 60 min", "value": 99.3, "unit": "%"}, {"measurement": "remaining amount in plasma", "setting": "[3]; time point 120 min", "value": 93.2, "unit": "%"}, {"measurement": "inhibition of Arf1 activation", "setting": "Arf1", "value": "effectively inhibit the activation of Arf1; also recorded: effective inhibitors"}, {"measurement": "remaining amount in plasma", "setting": "[4]; time point 0 min", "value": 100.0, "unit": "%"}, {"measurement": "remaining amount in plasma", "setting": "[4]; time point 10 min", "value": 99.0, "unit": "%"}, {"measurement": "remaining amount in plasma", "setting": "[4]; time point 30 min", "value": 94.0, "unit": "%"}, {"measurement": "remaining amount in plasma", "setting": "[4]; time point 60 min", "value": 98.8, "unit": "%"}, {"measurement": "remaining amount in plasma", "setting": "[4]; time point 120 min", "value": 86.0, "unit": "%"}]}]}
